Laboratory results reported in patent publication US4115385A, “Antibacterial 3-(5-tetrazolyl) penam compounds” (Pfizer Inc., priority 1977, dated 1978).
In brackets after ≈: the same amount, converted by molar mass.

Test system: Streptococcus pyogenes
Assay: In vitro minimum inhibitory concentration (MIC) vs. Strep. pyogenes
Format: cell-based
Conditions: Examples
Experimental: The antibacterial penam compounds of the instant invention show activity against a wide variety of gram-positive and gram-negative bacteria. […] The broth is inoculated with the bacterial culture, and with the test antibiotic, and then it is incubated overnight. On the next day, the test is read visually. The minimum inhibitory concentration (MIC) is the lowest concentration of antibiotic which prevents turbidity, i.e., which prevents growth of the microorganism. In vitro activities of several of the penam compounds of the invention are presented later in this specification.
In Table II, the minimum inhibitory concentrations (MIC's) of compounds of formula I, wherein R^2 is hydrogen, against a strain of Streptococcus pyogenes, are reported; and in Table III, minimum inhibitory concentrations of compounds of formula I, wherein R^2 is hydrogen, against a strain of Staphylococcus aureus, are presented. Because of the tautomeric nature of such tetrazole derivatives, referred to hereinbefore,each of the preparations tested also contains some of the corresponding compound of formula II, wherein R^3 is hydrogen.

For “6-(2-Phenylacetamido)-2,2-dimethyl-3-(1-pivaloyloxymethyl]-tetrazol-5-yl)penam and 6-(2-Phenylacetamido)-2,2-dimethyl-3-(2-[pivaloyloxylmethyl]tetrazol-5-yl)penam”, the “MIC against Strep. pyogenes” value was 0.2 µg/mL.

Same assay, conditions: Streptococcus pyogenes, read-out: MIC vs. Strep. pyogenes

First: CC1(C)S[C@@H]2[C@H](NC(=O)[C@H](NC(=O)c3ccco3)c3ccccc3)C(=O)N2[C@H]1c1nnn[nH]1 [D-2-(2-furancarboxamido)-2-phenylacetyl]
Second: CC1(C)S[C@@H]2[C@H](NC(=O)[C@H](NC(=O)c3cccnc3)c3ccccc3)C(=O)N2[C@H]1c1nnn[nH]1
The MIC of the first is higher: 0.1 µg/mL (≈ 0.214 µM) for the first, less than 0.1 µg/mL for the second.

CC1(C)S[C@@H]2[C@H](NC(=O)Oc3ccccc3)C(=O)N2[C@H]1c1nnn[nH]1 [phenoxycarbonyl] and CC1(C)S[C@@H]2[C@H](NC(=O)CSc3ccncc3)C(=O)N2[C@H]1c1nnn[nH]1 [2-(4-pyridylthio)acetyl, 6-(2-[4-Pyridylthio]acetamido)-2,2-dimethyl-3-(5-tetrazolyl)penam] cannot be ordered by MIC: less than 0.1 µg/mL for the first, less than 0.1 µg/mL for the second.

CC1(C)S[C@@H]2[C@H](NC(=O)[C@H](NC(=O)CCNC(=N)c3cc(Br)cc(Br)c3)c3ccccc3)C(=O)N2[C@H]1c1nnn[nH]1 and CC1(C)S[C@@H]2[C@H](NC(=O)[C@H](NC(=O)CNC(=N)c3ccncc3)c3ccccc3)C(=O)N2[C@H]1c1nnn[nH]1 [6-(D-2-[2-(4-pyridinecarboxamidino)acetamido]-2-phenylacetamido)-2,2-dimethyl-3-(5-tetrazolyl)penam] cannot be ordered by MIC: less than 0.1 µg/mL for the first, less than 0.1 µg/mL for the second.

COc1ccc(NC(=O)N[C@@H](C(=O)N[C@@H]2C(=O)N3[C@@H]2SC(C)(C)[C@@H]3c2nnn[nH]2)c2ccc(O)cc2)cc1 and COc1ccc(NC(=O)N[C@@H](C(=O)N[C@@H]2C(=O)N3[C@@H]2SC(C)(C)[C@@H]3c2nnn[nH]2)c2ccccc2)cc1 cannot be ordered by MIC: less than 0.1 µg/mL for the first, less than 0.1 µg/mL for the second.

CC1(C)S[C@@H]2[C@H](NC(=O)[C@H](NC(=O)NC(=O)c3ccccc3)c3ccccc3)C(=O)N2[C@H]1c1nn[nH]n1 [2-(3-benzoylureido)-2-phenylacetyl] and CC1(C)S[C@@H]2[C@H](NC(=O)[C@H](NC(=O)NC(=O)c3cc(Br)cc(Br)c3)c3ccccc3)C(=O)N2[C@H]1c1nn[nH]n1 cannot be ordered by MIC: less than 0.1 µg/mL for the first, less than 0.1 µg/mL for the second.

CC1(C)S[C@@H]2[C@H](NC(=O)[C@H](NC(=O)CNS(=O)(=O)c3ccccc3)c3ccccc3)C(=O)N2[C@H]1c1nn[nH]n1 and CC1(C)S[C@@H]2[C@H](NC(=O)[C@H](NC(=O)CN)c3ccccc3)C(=O)N2[C@H]1c1nn[nH]n1 [D-2-(2-aminoacetamido)-2-phenylacetyl, 6-(D-2-[2-Aminoacetamido]-2-phenylacetamido)-2,2-dimethyl-3-(5-tetrazolyl)penam] cannot be ordered by MIC: less than 0.1 µg/mL for the first, less than 0.1 µg/mL for the second.

CC1(C)S[C@@H]2[C@H](NC(=O)[C@H](NC(=O)CN)c3ccc(O)cc3)C(=O)N2[C@H]1c1nnn[nH]1 [6-(D-2-[2-aminoacetamido]-2-[4-hydroxyphenyl]acetamido)-2,2-dimethyl-3-(5-tetrazolyl)penam] and CNC(=O)NCC(=O)N[C@@H](C(=O)N[C@@H]1C(=O)N2[C@@H]1SC(C)(C)[C@@H]2c1nnn[nH]1)c1ccccc1 cannot be ordered by MIC: less than 0.1 µg/mL for the first, less than 0.1 µg/mL for the second.

Going from CC1(C)S[C@@H]2[C@H](NC(=O)[C@H](NC(=O)CNC(=N)c3cccc(S(N)(=O)=O)c3)c3ccccc3)C(=O)N2[C@H]1c1nnn[nH]1 to CC1(C)S[C@@H]2[C@H](NC(=O)[C@H](NC(=O)CNC(=N)c3cnc4ccccc4n3)c3ccccc3)C(=O)N2[C@H]1c1nnn[nH]1, the MIC rises from less than 0.1 µg/mL to 0.1 µg/mL (≈ 0.171 µM).

CC1(C)S[C@@H]2[C@H](NC(=O)[C@H](NC(=O)CSc3nc4ccccc4[nH]3)c3ccccc3)C(=O)N2[C@H]1c1nn[nH]n1 and CC1(C)S[C@@H]2[C@H](NC(=O)[C@H](NC(=O)NC(=O)C34CC5CC(CC(C5)C3)C4)c3ccccc3)C(=O)N2[C@H]1c1nn[nH]n1 cannot be ordered by MIC: less than 0.1 µg/mL for the first, less than 0.1 µg/mL for the second.

Going from CC1(C)S[C@@H]2[C@H](NC(=O)[C@H](N)C3=CCC=CC3)C(=O)N2[C@H]1c1nnn[nH]1 [D-2-amino-2-(1,4-cyclohexadienyl)acetyl, 6-(D-2-Amino-2-[1,4-cyclohexadienyl]acetamido)-2,2-dimethyl-3-(5-tetrazolyl)penam] to CC1(C)S[C@@H]2[C@H](NC(=O)C(C(=O)O)c3ccsc3)C(=O)N2[C@H]1c1nnn[nH]1 (stereo partly shown) [2-carboxy-2-(3-thienyl)acetyl, 6-(2-Carboxy-2-[3-thienyl]acetamido)-2,2-dimethyl-3-(5-tetrazolyl)penam], the MIC rises from less than 0.1 µg/mL to 0.1 µg/mL (≈ 0.245 µM).

CC1(C)S[C@@H]2[C@H](NC(=O)Cc3sccc3CN=[N+]=[N-])C(=O)N2[C@H]1c1nnn[nH]1 [2-(3-azidomethyl-2-thienyl-acetyl, 6-(2-[3-Azidomethyl-2-thienyl]acetamido)-2,2-dimethyl-3-(5-tetrazolyl)penam] was tested, and the MIC was no more than 0.1 µg/mL.

Same assay, conditions: Streptococcus pyogenes; Examples; read-out: MIC against Strep. pyogenes

Work on CC(C)(C)C(=O)OCn1nnc([C@@H]2N3C(=O)[C@@H](NC(=O)[C@H](N)c4ccc(O)cc4)[C@H]3SC2(C)C)n1 [6-(D-2-Amino-2-[p-hydroxyphenyl]acetamido)-2,2-dimethyl-3-(2-[pivaloyloxymethyl]tetrazol-5-yl)penam] yielded an MIC of 0.39 µg/mL (≈ 0.774 µM).

Same assay, conditions: Streptococcus pyogenes; Table II; two-fold serial dilution, Brain-Heart Infusion broth, overnight; read-out: MIC vs. Strep. pyogenes

In order of rising MIC:
1. CC1(C)S[C@@H]2[C@H](NC(=O)[C@H](NC(=O)NC(=O)OCc3ccccc3)c3ccccc3)C(=O)N2[C@H]1c1nn[nH]n1  0.004 µg/mL (≈ 0.00726 µM)
2. CC1(C)S[C@@H]2[C@H](NC(=O)[C@H](NC(=O)CNC(=N)c3cc(S(N)(=O)=O)cc(S(N)(=O)=O)c3)c3ccccc3)C(=O)N2[C@H]1c1nnn[nH]1  0.004 µg/mL (≈ 0.00578 µM)
3. CC1(C)S[C@@H]2[C@H](NC(=O)[C@@H](c3ccccc3)N3C(=O)c4ccccc4C3=O)C(=O)N2[C@H]1c1nnn[nH]1 [D-2-phthalimido-2-phenylacetyl, 6-(D-2-Phthalimido-2-phenylacetamido)-2,2-dimethyl-3-(5-tetrazolyl)penam]  0.004 µg/mL (≈ 0.00794 µM)
4. CC1(C)S[C@@H]2[C@H](NC(=O)[C@H](NC(=O)NC(=N)N)c3ccc(O)cc3)C(=O)N2[C@H]1c1nnn[nH]1 [6-(D-2-[3-guanylureido]-2-[4-hydroxyphenyl]acetamido)-2,2-dimethyl-3-(5-tetrazolyl)-penam]  0.004 µg/mL (≈ 0.00843 µM)
5. CC1(C)S[C@@H]2[C@H](NC(=O)[C@H](NC(=O)CNC(=N)Cc3ccc(Cl)cc3)c3ccccc3)C(=O)N2[C@H]1c1nnn[nH]1  0.2 µg/mL (≈ 0.344 µM)
6. CC1(C)S[C@@H]2[C@H](NC(=O)[C@H](NC(=O)COCC(=O)O)c3ccccc3)C(=O)N2[C@H]1c1nnn[nH]1 [6-(D-2-[Carboxymethoxy]acetamido-2-phenylacetamido)-2,2-dimethyl-3-(5-tetrazolyl)penam]  0.2 µg/mL (≈ 0.409 µM)
7. CC1(C)S[C@@H]2[C@H](NC(=O)[C@H](NC(=O)NC(=O)c3ccncc3)c3ccccc3)C(=O)N2[C@H]1c1nn[nH]n1  0.2 µg/mL (≈ 0.383 µM)
8. CC1(C)S[C@@H]2[C@H](NC(=O)[C@H](NC(=O)NC(=O)CCl)c3ccccc3)C(=O)N2[C@H]1c1nn[nH]n1 [2-(3-[chloroacetyl]ureido-2-phenylacetyl]  0.2 µg/mL (≈ 0.406 µM)
9. CC1(C)S[C@@H]2[C@H](NC(=O)CSCc3ccccc3)C(=O)N2[C@H]1c1nnn[nH]1 [2-(benzylthio)acetyl]  0.2 µg/mL (≈ 0.494 µM)
10. CC1(C)S[C@@H]2[C@H](NC(=O)[C@H](NC(=O)COc3ccccc3)c3ccc(O)cc3)C(=O)N2[C@H]1c1nnn[nH]1 [6-(D-2-[2-Phenoxyacetamido]-2-[4-hydroxyphenyl]acetamido)-2,2-dimethyl-3-(5-tetrazol-5-yl)penam]  0.2 µg/mL (≈ 0.382 µM)
11. CC1(C)S[C@@H]2[C@H](NC(=O)[C@H](NS(=O)(=O)c3cccs3)c3ccccc3)C(=O)N2[C@H]1c1nn[nH]n1  0.39 µg/mL (≈ 0.751 µM)
12. CCCC(=O)N[C@@H](C(=O)N[C@@H]1C(=O)N2[C@@H]1SC(C)(C)[C@@H]2c1nnn[nH]1)c1ccccc1 [D-2-(butyramido)-2-phenylacetyl]  0.39 µg/mL (≈ 0.879 µM)
13. CC1(C)S[C@@H]2[C@H](NC(=O)[C@H](NC(=O)CNC(=O)OCc3ccccc3)c3ccccc3)C(=O)N2[C@H]1c1nnn[nH]1  0.39 µg/mL (≈ 0.691 µM)
14. CC1(C)S[C@@H]2[C@H](NC(=O)[C@H](NC(=O)CNC(=N)c3nc4ccccc4o3)c3ccccc3)C(=O)N2[C@H]1c1nnn[nH]1  0.39 µg/mL (≈ 0.679 µM)
15. COc1ccc(C(=N)NC(=O)NCC(=O)N[C@@H](C(=O)N[C@@H]2C(=O)N3[C@@H]2SC(C)(C)[C@@H]3c2nnn[nH]2)c2ccccc2)cc1  1.56 µg/mL (≈ 2.57 µM)
16. CC1(C)S[C@@H]2[C@H](NC(=O)[C@H](NC(=O)CNC(=O)NC(=N)N)c3ccccc3)C(=O)N2[C@H]1c1nn[nH]n1  3.12 µg/mL (≈ 6.05 µM)
17. CC(=O)NC(=S)N[C@@H](C(=O)N[C@@H]1C(=O)N2[C@@H]1SC(C)(C)[C@@H]2c1nn[nH]n1)c1ccccc1  3.2 µg/mL (≈ 6.74 µM)
18. C/C(CN)=C(\C(=O)NC1C(=O)N2C(c3nnn[nH]3)C(C)(C)S[C@H]12)c1ccccc1 (stereo partly shown) [3-aminomethyl-2-phenylisocrotonoyl, 6-(3-Aminomethyl-2-phenylisocrotonamido)-2,2-dimethyl-3-(5-tetrazolyl)penam]  12.5 µg/mL (≈ 30.2 µM)
19. CC1(C)S[C@@H]2[C@H](NC(=O)C(c3ccccc3)S(=O)(=O)O)C(=O)N2[C@H]1c1nnn[nH]1 (stereo partly shown) [2-sulfo-2-phenylacetyl, 6-(2-Sulfo-2-phenylacetamido)-2,2-dimethyl-3-(5-tetrazolyl)penam]  200 µg/mL (≈ 456 µM)

Same assay, conditions: Streptococcus pyogenes; Table IV; read-out: MIC vs. Strep. pyogenes

In order of rising MIC:
1. CC(C)(C)C(=O)OCn1nnc([C@@H]2N3C(=O)[C@@H](NC(=O)[C@H](N)c4ccc(O)cc4)[C@H]3SC2(C)C)n1 [6-(D-2-Amino-2-[p-hydroxyphenyl]acetamido)-2,2-dimethyl-3-(2-[pivaloyloxymethyl]tetrazol-5-yl)penam]  0.39 µg/mL (≈ 0.774 µM)
2. CC1(C)S[C@@H]2[C@H](N3CN[C@H](c4ccccc4)C3=O)C(=O)N2[C@H]1c1nnn[nH]1 [6-(5-Oxo-4-phenyl-1-imidazolidinyl)-2,2-dimethyl-3-(5-tetrazolyl)penam]  6.25 µg/mL (≈ 16.2 µM)

Same assay, conditions: Table II; two-fold serial dilution, Brain-Heart Infusion broth, overnight

With CC1(C)SC2C(NC(=O)[C@@H](c3ccccc3)S(N)(=O)=O)C(=O)N2C1c1nnn[nH]1 (stereo partly drawn) [2-sulfamoyl-2-phenylacetyl, 6-(D-2-Sulfamoyl-2-phenylacetamido)-2,2-dimethyl-3-(5-tetrazolyl)penam] the “MIC vs. Strep. pyogenes” value was less than 0.1 µg/mL.

Same assay, conditions: Table IV

For “6-(2-Phenylacetamido)-2,2-dimethyl-3-(1-pivaloyloxymethyl]-tetrazol-5-yl)penam and 6-(2-Phenylacetamido)-2,2-dimethyl-3-(2-[pivaloyloxylmethyl]tetrazol-5-yl)penam”, the “MIC vs. Strep. pyogenes” value was 0.2 µg/mL.
